Test results: patent US20240342138A1, “MICROTUBULE TARGETING AGENTS” (BPGbio, Inc., priority 2023, published 2024)

System: DU145 tumors
Test: Prostate cancer xenograft model
Assay type: in vivo, nude mice
Procedure: FIG. 12A-12E show the efficacy of Compound lin a prostate cancer xenograft model (DU145). A) In vitro potency of Compound 1 in DU145 cells as evaluated by ATPlite 1Step™ Perkin Elmer (performed by NTRC Oncolines). B) DU145 cells were implanted subcutaneously in nude mice and tumors were allowed to grow to a volume of 210 mm^3 followed by randomization of animals into three (3) groups (vehicle control, 75 mg/kg, 150 mg/kg Compound 1) with 12 animals per group. A Compound 1 solid dispersion was prepared prior to each dosing and administered by oral gavage two times a day (BID). Mean tumor volume of each group over time and the growth of tumor in each individual animal was graphed. For each individual animal of vehicle group TGI (%) was calculated based on the tumor growth inhibition of individual tumor at each given day of the study compared to the average of the group for that given day of the study. P-values were calculated using two-tailed distribution and two-sample equal variance (homoscedastic) for each group treated with Compound 1 for each given day of the study in reference to vehicle control. NS p>0.05; *p≤0.05; **p≤0.01; ***p p≤0.001; **** p≤0.0001. C) Plasma and tumor tissues from vehicle (n=11), 75 mg/kg (n=12), and 150 mg/kg (n=12) groups were harvested at the end of the study. The concentration of Compound lin the plasma or tumor tissue was plotted as a column plot (Average t SEM) or Scatter Plot with Median. D) Tumor tissues from vehicle (n=12), 75 mg/kg (n=12) and 150 mg/kg (n=12) groups were harvested at the end of the study when each animal was sacrificed. The level of two biomarkers, pHH3 and CCNB1 in each tissue was measured and graphed as the Min-to-Max plot and scatter plot of the level of each biomarker. The line in the scatter plot indicates the group mean. E) Body weight of each individual animal was measured on days 0, 2, 5, 7, 9, 12, 14, 16, 19, 21, 23, and 26 and graphed using Graphpad Prism.
Anti-tumor efficacy of Compound 1 was evaluated against three (3) different preclinical oncology mice models of colorectal cancer, prostate cancer, and lung adenocarcinoma (see Table 5 below). For this purpose, an oral formulation of Compound 1 was used.
DU145 is an epithelial cell carcinoma derived from the metastatic site (brain). DU145 cells were implanted subcutaneously in nude mice and tumors were allowed to grow to an average volume of 106 mm^3 followed by randomization into three (3) groups consisting of vehicle control, 75 mg/kg and 150 mg/kg Compound 1 (12 animals per group). A Compound 1 solid dispersion was administered by oral gavage two times a day (BID). All animals, except one animal from vehicle group, survived throughout the 26 days of the study. Any animal that left the study prior to Day 26 was eliminated from all calculations. The percentage of tumor growth inhibition (TGI %) was calculated for each individual tumor. The mean tumor volume of each group over time and the growth of tumor in each individual animal is plotted below. The percentage of tumor growth inhibition (TGI %) was calculated for each individual animal.

Compound: COc1ccccc1-c1nc(CNC(=O)c2ccccc2OC(F)F)n[nH]1 [Compound 1, 2-(difluoromethoxy)-N-[[5-(2-methoxyphenyl)-1H-1,2,4-triazol-3-yl]methyl]benzamide]
- TGI (%) (75 mg/kg BID oral, day 26): 22%
- Level of the drug in the plasma and tumor tissue (75 mg/kg to 150 mg/kg, FIG. 12C): dose-dependent increase
- Maximum TGI (%), end of the study (150 mg/kg BID oral (b152 prints 150 mg/g), day 26): 38%
- Body weight (26 days, FIG. 12E): no body weight loss related to the drug
- Level of biomarkers CCNB1 and pHH3 (tumor tissue, FIG. 12D): increase
